{"source": "patent US10011584B2", "about": "“Polymorphic form of [5-fluoro-3-({2-[(4-fluorobenzene) sulfonyl]pyridin-3-yl}methyl)-2-methylindol-1-yl]-acetic acid” (Atopix Therapeutics Limited, priority 2014, dated 2018)", "assay_type_in_all_cases": "physicochemical", "key": {"TG-FTIR thermogravimetry": {"assay": "TG-FTIR thermogravimetry", "settings": "25° C. to 250° C., heating rate 10° C./min", "method": "(§1) In the Examples the following conditions were used for measurements. • 1H-NMR: 1H-NMR spectra were recorded using a Bruker DPX300 spectrometer with a proton frequency of 300.13 MHz, a 30° excitation pulse, and a recycle delay of 1 s. 16 scans were accumulated. d6-DMSO was used as the solvent. • DSC: Differential scanning calorimetry was carried out with a Perkin Elmer DSC-7 instrument (closed gold sample pan under N2 atmosphere). • DVS (SPS): Sorption Measurement System SPS11-100n. The sample was placed in an Al crucible, and the sample was allowed to equilibrate at a given r.h. before starting a predefined humidity program. The used measurement program can be recognized in the corresponding figures (blue line). • FT-Raman spectroscopy: FT-Raman spectra were recorded on a Bruker RFS 100 FT-Raman system with a near infrared Nd:YAG laser operating at 1064 nm and a liquid nitrogen-cooled germanium detector. For each sample, a minimum of 64 scans with a resolution of 2 cm^−1 were accumulated. 300 mW laser power was used. The FT-Raman data are shown in the region between 3500 to 100 cm^−1. […] Sample preparation: The samples were generally measured without any special treatment other than the application of slight pressure to get a flat surface. […]\nBatch 3 was analyzed by TG-FTIR in a temperature range of 25° C. to 250° C. and a heating rate of 10° C./min. […]"}, "[1]": {"assay": "Thermodynamic stability of polymorphic forms (suspension equilibration of a mixture of forms, PXRD)", "settings": "for temperature range of thermodynamic stability (in words): enantiotropic polymorphs", "method": "Polymorphic Form 2 has a melting signal at 196° C. as measured by differential scanning calorimetry and is stable at temperatures up to about 60-65° C.\nA mixture with similar ratios of the products of Example 4, Experiment 15 (Form 1), Example 4, Experiment 9 (form 2+x) and Example 4, Experiment 6 (Form 2+Form 3) were suspended in acetonitrile and shaken for 13 days at 22° C. to give a product designated Product P24). The solid was recovered by filter centrifugation and characterized by PXRD. […] These signals could be assigned to (i) another crystalline form or (ii) the signals could not be detected for Product P24 because the diffractogram has a lower intensity.\nThus, after 13 days at 22° C. the PXRD corresponds to that of Form 2."}, "[2]": {"assay": "Dynamic vapour sorption (DVS) with FT-Raman check pre- and post-measurement", "method": "as §1\nIn order to examine the behaviour of Batch 1 in the presence of variable water vapour pressure, the sample was analyzed by DVS. […]"}}, "data": [{"smiles": "Cc1c(Cc2cccnc2S(=O)(=O)c2ccc(F)cc2)c2cc(F)ccc2n1CC(=O)O", "note": "[Batch 3, [5-fluoro-3-({2-[(4-fluorobenzene)sulfonyl]pyridin-3-yl}methyl)-2-methylindol-1-yl]-acetic acid]", "values": [{"measurement": "decomposition temperature", "setting": "TG-FTIR thermogravimetry", "value": "> 160", "unit": "°C"}]}, {"smiles": "Cc1c(Cc2cccnc2S(=O)(=O)c2ccc(F)cc2)c2cc(F)ccc2n1CC(=O)O", "note": "[Form 2, [5-fluoro-3-({2-[(4-fluorobenzene)sulfonyl]pyridin-3-yl}methyl)-2-methylindol-1-yl]-acetic acid]", "values": [{"measurement": "most stable form after suspension equilibration", "setting": "[1]; mixture of Forms 1, 2 and 3 in acetonitrile, shaken 13 days at 22° C., PXRD", "value": "most stable form at room temperature"}, {"measurement": "temperature up to which the form is thermodynamically stable", "setting": "[1]; upper limit of stability range of the polymorphic form", "value": "60-65 °C"}]}, {"smiles": "Cc1c(Cc2cccnc2S(=O)(=O)c2ccc(F)cc2)c2cc(F)ccc2n1CC(=O)O", "note": "[Form 3, [5-fluoro-3-({2-[(4-fluorobenzene)sulfonyl]pyridin-3-yl}methyl)-2-methylindol-1-yl]-acetic acid]", "values": [{"measurement": "temperature range of thermodynamic stability (in words)", "setting": "[1]", "value": "stable at temperatures between the stability ranges of Forms 2 and 1"}]}, {"smiles": "Cc1c(Cc2cccnc2S(=O)(=O)c2ccc(F)cc2)c2cc(F)ccc2n1CC(=O)O", "note": "[Form 1, [5-fluoro-3-({2-[(4-fluorobenzene)sulfonyl]pyridin-3-yl}methyl)-2-methylindol-1-yl]-acetic acid]", "values": [{"measurement": "temperature range of thermodynamic stability (in words)", "setting": "[1]", "value": "thermodynamically stable at high temperatures"}]}, {"smiles": "Cc1c(Cc2cccnc2S(=O)(=O)c2ccc(F)cc2)c2cc(F)ccc2n1CC(=O)O", "note": "[Batch 1, [5-fluoro-3-({2-[(4-fluorobenzene)sulfonyl]pyridin-3-yl}methyl)-2-methylindol-1-yl]-acetic acid]", "values": [{"measurement": "phase transition of sample recovered from DVS", "setting": "[2]; FT-Raman pre- and post DVS", "value": "no phase transition"}, {"measurement": "mass change at the end of the DVS measurement versus starting material", "setting": "[2]; end humidity 50% r.h., scanning rate 5% r.h. per hour, cycle 50-0-95-50% r.h.", "value": 0.6, "unit": "%"}]}]}
